± gives the expanded uncertainty stated by the source.
What was measured:
[1] = 298.15 K; 101.33 kPa; Liquid; Vibrating tube method
[2] = refractive index (Na D-line) (dimensionless); conditions: 298.15 K; 101.33 kPa; Liquid; Standard Abbe refractometry
[3] = excess molar enthalpy (molar enthalpy of mixing); xn = mol fraction of the nth substance listed; conditions: 298 K, 81.5 kPa, Liquid, Isoperibol calorimetry

For CCCCO [butan-1-ol], the mass density [1] was 805.79 ± 1 kg/m3 and the refractive index [2] was 1.39734 ± 0.00031.
In the case of CCC(C)O (stereo not drawn) [butan-2-ol], the mass density [1] is reported as 802.48 ± 1 kg/m3 and the refractive index [2] is reported as 1.39551 ± 0.00037.
Compound CCO [ethanol] has a mass density [1] of 784.9 ± 1 kg/m3 and a refractive index [2] of 1.35961 ± 0.00031.
Work on O=[N+]([O-])c1ccccc1 [nitrobenzene] yielded a mass density [1] of 1198.12 ± 1.1 kg/m3 and a refractive index [2] of 1.55004 ± 0.00037.
In the case of O=[N+]([O-])c1ccccc1 [nitrobenzene] + CC(C)O, the excess molar enthalpy ([3]; x1 = 0.1038) is reported as 0.208 ± 0.00263 kcal/mol, the excess molar enthalpy ([3]; x1 = 0.2065) is reported as 0.339 ± 0.0043 kcal/mol and the excess molar enthalpy ([3]; x1 = 0.306) is reported as 0.42 ± 0.00526 kcal/mol. It also gave an excess molar enthalpy ([3]; x1 = 0.3954) of 0.466 ± 0.00574 kcal/mol, an excess molar enthalpy ([3]; x1 = 0.4911) of 0.488 ± 0.00598 kcal/mol and an excess molar enthalpy ([3]; x1 = 0.5906) of 0.485 ± 0.00598 kcal/mol. It also gave an excess molar enthalpy ([3]; x1 = 0.6999) of 0.451 ± 0.00574 kcal/mol, an excess molar enthalpy ([3]; x1 = 0.8042) of 0.381 ± 0.00478 kcal/mol and an excess molar enthalpy ([3]; x1 = 0.8996) of 0.264 ± 0.00335 kcal/mol.
Compound O=[N+]([O-])c1ccccc1 [nitrobenzene] + CCC(C)O has an excess molar enthalpy ([3]; x1 = 0.1035) of 0.262 ± 0.00335 kcal/mol, an excess molar enthalpy ([3]; x1 = 0.2049) of 0.424 ± 0.00526 kcal/mol and an excess molar enthalpy ([3]; x1 = 0.3065) of 0.528 ± 0.00669 kcal/mol. The excess molar enthalpy ([3]; x1 = 0.4088) was 0.579 ± 0.00717 kcal/mol, the excess molar enthalpy ([3]; x1 = 0.5111) was 0.592 ± 0.00741 kcal/mol and the excess molar enthalpy ([3]; x1 = 0.6117) was 0.568 ± 0.00693 kcal/mol. It also gave an excess molar enthalpy ([3]; x1 = 0.6988) of 0.534 ± 0.00669 kcal/mol, an excess molar enthalpy ([3]; x1 = 0.7988) of 0.448 ± 0.0055 kcal/mol and an excess molar enthalpy ([3]; x1 = 0.8981) of 0.292 ± 0.00382 kcal/mol.
Work on O=[N+]([O-])c1ccccc1 [nitrobenzene] + CCCCO yielded an excess molar enthalpy ([3]; x1 = 0.1116) of 0.184 ± 0.00239 kcal/mol, an excess molar enthalpy ([3]; x1 = 0.2145) of 0.31 ± 0.00382 kcal/mol and an excess molar enthalpy ([3]; x1 = 0.3183) of 0.398 ± 0.00502 kcal/mol. For the same compound, the excess molar enthalpy ([3]; x1 = 0.4126) was 0.448 ± 0.0055 kcal/mol, the excess molar enthalpy ([3]; x1 = 0.5133) was 0.464 ± 0.00574 kcal/mol and the excess molar enthalpy ([3]; x1 = 0.61) was 0.466 ± 0.00574 kcal/mol. The excess molar enthalpy ([3]; x1 = 0.6849) was 0.449 ± 0.0055 kcal/mol, the excess molar enthalpy ([3]; x1 = 0.7953) was 0.391 ± 0.00502 kcal/mol and the excess molar enthalpy ([3]; x1 = 0.8987) was 0.262 ± 0.00335 kcal/mol.
Work on O=[N+]([O-])c1ccccc1 [nitrobenzene] + CCCO yielded an excess molar enthalpy ([3]; x1 = 0.1037) of 0.169 ± 0.00222 kcal/mol, an excess molar enthalpy ([3]; x1 = 0.2036) of 0.288 ± 0.00359 kcal/mol and an excess molar enthalpy ([3]; x1 = 0.3063) of 0.364 ± 0.00454 kcal/mol. The excess molar enthalpy ([3]; x1 = 0.4034) was 0.409 ± 0.00502 kcal/mol, the excess molar enthalpy ([3]; x1 = 0.4956) was 0.432 ± 0.0055 kcal/mol and the excess molar enthalpy ([3]; x1 = 0.4993) was 0.432 ± 0.0055 kcal/mol. The excess molar enthalpy ([3]; x1 = 0.593) was 0.43 ± 0.00526 kcal/mol, the excess molar enthalpy ([3]; x1 = 0.6975) was 0.408 ± 0.00502 kcal/mol and the excess molar enthalpy ([3]; x1 = 0.7978) was 0.351 ± 0.0043 kcal/mol. It also gave an excess molar enthalpy ([3]; x1 = 0.9025) of 0.242 ± 0.00311 kcal/mol.
O=[N+]([O-])c1ccccc1 [nitrobenzene] + CCO showed an excess molar enthalpy ([3]; x1 = 0.0997) of 0.112 ± 0.00153 kcal/mol, an excess molar enthalpy ([3]; x1 = 0.1991) of 0.201 ± 0.00263 kcal/mol and an excess molar enthalpy ([3]; x1 = 0.2988) of 0.264 ± 0.00335 kcal/mol. For the same compound, the excess molar enthalpy ([3]; x1 = 0.4003) was 0.307 ± 0.00382 kcal/mol, the excess molar enthalpy ([3]; x1 = 0.4899) was 0.342 ± 0.0043 kcal/mol and the excess molar enthalpy ([3]; x1 = 0.5905) was 0.355 ± 0.00454 kcal/mol. The excess molar enthalpy ([3]; x1 = 0.6997) was 0.344 ± 0.0043 kcal/mol, the excess molar enthalpy ([3]; x1 = 0.7999) was 0.304 ± 0.00382 kcal/mol and the excess molar enthalpy ([3]; x1 = 0.8939) was 0.222 ± 0.00287 kcal/mol.
Work on CCCO [propan-1-ol] yielded a mass density [1] of 799.56 ± 1 kg/m3 and a refractive index [2] of 1.38361 ± 0.00031.
In the case of CC(C)O [propan-2-ol], the mass density [1] is reported as 780.9 ± 1 kg/m3 and the refractive index [2] is reported as 1.37518 ± 0.00033.
